# Test results: ChEMBL document CHEMBL1125524, “Adenosine A1 antagonists. 2. Structure-activity relationships on diuretic activities and protective effects against acute renal failure” (J Med Chem, 1992)
# How the values were obtained:
# Rattus norvegicus [1] = assay: Ratio of urinary excretion value (urinary volume) in treated rats to that in control rats, at a peroral dose of 0.1 mg/Kg; type: functional, Urine
# Rattus norvegicus [2] = assay: Ratio of urinary excretion value (urinary volume) in treated rats to that in control rats, at a peroral dose of 0.4 mg/Kg; type: functional, Urine
# Rattus norvegicus [3] = assay: Ratio of urinary excretion value (urinary volume) in treated rats to that in control rats, at a peroral dose of 1.6 mg/Kg; type: functional, Urine
# Rattus norvegicus [4] = assay: Ratio of urinary excretion value (urinary volume) in treated rats to that in control rats, at a peroral dose of 25 mg/Kg; type: functional, Urine
# Rattus norvegicus [5] = assay: Oral diuretic activity was measured after oral administration of 0.1 mg/kg to rats(control volume is 1.10+/-0.09); type: functional, Urine
# Rattus norvegicus [6] = assay: Ratio of sodium ion/potassium ion concentration in treated rats to that in control rats, at a peroral dose of 0.1 mg/Kg; type: functional
# Rattus norvegicus [7] = assay: Ratio of sodium ion/potassium ion concentration in treated rats to that in control rats, at a peroral dose of 0.4 mg/Kg; type: functional
# Rattus norvegicus [8] = assay: Ratio of sodium ion/potassium ion concentration in treated rats to that in control rats, at a peroral dose of 1.6 mg/Kg; type: functional
# Rattus norvegicus [9] = assay: Ratio of sodium ion/potassium ion concentration in treated rats to that in control rats, at a peroral dose of 25 mg/Kg; type: functional
# Rattus norvegicus [10] = assay: Effect on urinary excretion potassium and sodium after oral administration of 1.6 mg/kg to rats(potassium and sodium excretion in control rat is 0.193+/-0.016); type: functional, Urine
# Rattus norvegicus [11] = assay: Ratio of urinary excretion value (Na+ concentration) in treated rats to that in control rats, at a peroral dose of 0.1 mg/Kg; type: functional, Urine
# Rattus norvegicus [12] = assay: Ratio of urinary excretion value (Na+ concentration) in treated rats to that in control rats, at a peroral dose of 0.4 mg/Kg; type: functional, Urine
# Rattus norvegicus [13] = assay: Ratio of urinary excretion value (Na+ concentration) in treated rats to that in control rats, at a peroral dose of 1.6 mg/Kg; type: functional, Urine
# Rattus norvegicus [14] = assay: Ratio of urinary excretion value (Na+ concentration) in treated rats to that in control rats, at a peroral dose of 25 mg/Kg; type: functional, Urine
# Rattus norvegicus [15] = assay: Ratio of urinary excretion value (Na+ concentration) in treated rats to that in control rats, at a peroral dose of 6.25 mg/Kg; type: functional, Urine
# Rattus norvegicus [16] = assay: Effect on urinary excretion potassium and sodium after oral administration of 25 mg/kg to rats(potassium and sodium excretion in control rat is 0.129+/-0.026); type: functional, Urine
# Rattus norvegicus [17] = assay: Oral diuretic activity was measured after oral administration of 25 mg/kg to rats(control volume is 1.00+/-0.13); type: functional, Urine
# Rattus norvegicus [18] = assay: Oral diuretic activity was measured after oral administration of 0.4 mg/kg to rats(control volume is 0.83+/-0.08); type: functional, Urine
# Rattus norvegicus [19] = assay: Oral diuretic activity was measured after oral administration of 1.6 mg/kg to rats(control volume is 0.91+/-0.08); type: functional, Urine
# Rattus norvegicus [20] = assay: Serum creatinine concentration measured after intraperitoneal administration of 1 mg/kg of compound to rats(vehicle 5.43+/-0.11); type: functional
# Rattus norvegicus [21] = assay: Effect on urinary excretion potassium and sodium after oral administration of 0.1 mg/kg to rats(potassium and sodium excretion in control rat is 0.169+/-0.018); type: functional, Urine
# Rattus norvegicus [22] = assay: Effect on urinary excretion potassium and sodium after oral administration of 0.4 mg/kg to rats(potassium and sodium excretion in control rat is 0.132+/-0.010); type: functional, Urine
# Rattus norvegicus [23] = assay: Urea nitrogen concentration measured after intraperitoneal administration of 1 mg/kg of compound to rats(vehicle 182.5+/-3.4); type: functional
# Rattus norvegicus [24] = assay: Percent inhibition of serum creatinine by the compound given as ratio of Cr value in treated to vehicle treated ones after intraperitoneal administration of 1 mg/kg of compound to rats(vehicle 5.43+/-0.11); type: functional; details: ip
# Rattus norvegicus [25] = assay: Percent inhibition of Urea nitrogen by the compound given as ratio of UN value in treated to vehicle treated ones after intraperitoneal administration of 1 mg/kg of compound to rats(vehicle 182.5+/-3.4); type: functional; details: ip
# Rattus norvegicus [26] = assay: Ratio of urinary excretion value (urinary volume) in treated rats to that in control rats, at a peroral dose of 6.25 mg/Kg; type: functional, Urine
# Rattus norvegicus [27] = assay: Serum creatinine concentration measured after intraperitoneal administration of 1 mg/kg of compound to rats(vehicle 4.82+/-0.17); type: functional
# Rattus norvegicus [28] = assay: Serum creatinine concentration measured after intraperitoneal administration of 0.01 mg/kg of compound to rats(vehicle 4.50+/-0.24); type: functional
# Rattus norvegicus [29] = assay: Serum creatinine concentration measured after intraperitoneal administration of 0.1 mg/kg of compound to rats(vehicle 3.62+/-0.23); type: functional
# Rattus norvegicus [30] = assay: Effect on urinary excretion potassium and sodium after oral administration of 0.4 mg/kg to rats(potassium and sodium excretion in control rat is 0.267+/-0.044); type: functional, Urine
# Rattus norvegicus [31] = assay: Percent inhibition of serum creatinine by the compound given as ratio of Cr value in treated to vehicle treated ones after intraperitoneal administration of 0.01 mg/kg of compound to rats(vehicle 4.50+/-0.24); type: functional; details: ip
# Rattus norvegicus [32] = assay: Percent inhibition of serum creatinine by the compound given as ratio of Cr value in treated to vehicle treated ones after intraperitoneal administration of 0.1 mg/kg of compound to rats(vehicle 3.62+/-0.23); type: functional; details: ip
# Rattus norvegicus [33] = assay: Percent inhibition of serum creatinine by the compound given as ratio of Cr value in treated to vehicle treated ones after intraperitoneal administration of 1 mg/kg of compound to rats(vehicle 4.82+/-0.17); type: functional; details: ip
# Rattus norvegicus [34] = assay: Urea nitrogen concentration measured after intraperitoneal administration of 1 mg/kg of compound to rats(vehicle 151.5+/-7.4); type: functional
# Rattus norvegicus [35] = assay: Effect on urinary excretion potassium and sodium after oral administration of 1.6 mg/kg to rats(potassium and sodium excretion in control rat is 0.169+/-0.012); type: functional, Urine
# Rattus norvegicus [36] = assay: Oral diuretic activity was measured after oral administration of 0.4 mg/kg to rats(control volume is 1.72+/-0.31); type: functional, Urine
# Rattus norvegicus [37] = assay: Urea nitrogen concentration measured after intraperitoneal administration of 0.1 mg/kg of compound to rats(vehicle 141.3+/-8.3); type: functional
# Rattus norvegicus [38] = assay: Oral diuretic activity was measured after oral administration of 1.6 mg/kg to rats(control volume is 0.97+/-0.05); type: functional, Urine
# Rattus norvegicus [39] = assay: Urea nitrogen concentration measured after intraperitoneal administration of 0.01 mg/kg of compound to rats(vehicle 130.6+/-4.1); type: functional
# Rattus norvegicus [40] = assay: Percent inhibition of Urea nitrogen by the compound given as ratio of UN value in treated to vehicle treated ones after intraperitoneal administration of 1 mg/kg of compound to rats(vehicle 151.5+/-7.4); type: functional; details: ip
# Rattus norvegicus [41] = assay: Percent inhibition of Urea nitrogen by the compound given as ratio of UN value in treated to vehicle treated ones after intraperitoneal administration of 0.01 mg/kg of compound to rats(vehicle 130.6+/-4.1); type: functional; details: ip
# Rattus norvegicus [42] = assay: Percent inhibition of Urea nitrogen by the compound given as ratio of UN value in treated to vehicle treated ones after intraperitoneal administration of 0.1 mg/kg of compound to rats(vehicle 141.3+/-8.3); type: functional; details: ip
# Adenosine A2 receptor = Adenosine A2 receptor (Rattus norvegicus, UniProt P29276+P30543)
smiles,measurement,setting,value
"CCCn1c(=O)c2[nH]c(C3CCCC3)nc2n(CCC)c1=O [1,3-DIPROPYL-8-CYCLOPENTYLXANTHINE [DPCPX]]",T/C,Rattus norvegicus [1],1.24
same,T/C,Rattus norvegicus [2],2.47
same,T/C,Rattus norvegicus [3],2.79
same,T/C,Rattus norvegicus [4],1.93
same,Urine volume,Rattus norvegicus [5],1.36 ml 6hr-1 100g-1
same,Na+/K+,Rattus norvegicus [6],1.54
same,Na+/K+,Rattus norvegicus [7],1.76
same,Na+/K+,Rattus norvegicus [8],1.57
same,Na+/K+,Rattus norvegicus [9],1.27
same,Na,Rattus norvegicus [10],0.449 m equiv 6hr-1 100g-1
same,T/C,Rattus norvegicus [11],1.27
same,T/C,Rattus norvegicus [12],2.28
same,T/C,Rattus norvegicus [13],2.33
same,T/C,Rattus norvegicus [14],2.46
same,T/C,Rattus norvegicus [15],1.98
same,Na,Rattus norvegicus [16],0.316 m equiv 6hr-1 100g-1
same,Urine volume,Rattus norvegicus [17],1.93 ml 6hr-1 100g-1
same,Urine volume,Rattus norvegicus [18],2.05 ml 6hr-1 100g-1
same,Urine volume,Rattus norvegicus [19],2.54 ml 6hr-1 100g-1
same,Cr,Rattus norvegicus [20],3.75 mg/dL
same,Na,Rattus norvegicus [21],0.215 m equiv 6hr-1 100g-1
same,Na,Rattus norvegicus [22],0.302 m equiv 6hr-1 100g-1
same,UN,Rattus norvegicus [23],131.7 mg/dL
same,inhibition in vivo at 1 mg/kg,Rattus norvegicus [24],31%
same,inhibition in vivo at 1 mg/kg,Rattus norvegicus [25],27%
same,T/C,Rattus norvegicus [26],1.87
CCn1c(=O)c2nc(C34CC5CC(CC3C5)C4)[nH]c2n(CC)c1=O,Cr,Rattus norvegicus [27],2.09 mg/dL
same,Cr,Rattus norvegicus [28],2.82 mg/dL
same,Cr,Rattus norvegicus [29],1.44 mg/dL
same,Na,Rattus norvegicus [30],0.356 m equiv 6hr-1 100g-1
same,inhibition in vivo at 0.01 mg/kg,Rattus norvegicus [31],37%
same,inhibition in vivo at 0.1 mg/kg,Rattus norvegicus [32],63%
same,inhibition in vivo at 1 mg/kg,Rattus norvegicus [33],57%
same,T/C,Rattus norvegicus [2],1.33
same,T/C,Rattus norvegicus [3],2.99
same,UN,Rattus norvegicus [34],65.9 mg/dL
same,Na+/K+,Rattus norvegicus [7],1.29
same,Na+/K+,Rattus norvegicus [8],1.97
same,T/C,Rattus norvegicus [12],1.33
same,T/C,Rattus norvegicus [13],2.92
same,Na,Rattus norvegicus [35],0.492 m equiv 6hr-1 100g-1
same,Urine volume,Rattus norvegicus [36],2.29 ml 6hr-1 100g-1
same,UN,Rattus norvegicus [37],44.5 mg/dL
same,Urine volume,Rattus norvegicus [38],2.9 ml 6hr-1 100g-1
same,UN,Rattus norvegicus [39],81.7 mg/dL
same,inhibition in vivo at 1 mg/kg,Rattus norvegicus [40],56%
same,inhibition in vivo at 0.01 mg/kg,Rattus norvegicus [41],37%
same,inhibition in vivo at 0.1 mg/kg,Rattus norvegicus [42],68%
same,Ki,Adenosine A2 receptor,1.6 µM
